Molecular target: T1, MET D1228H (Homo sapiens, UniProt P08581, D1228H)
T1 construct: purchased Thermo Fisher Scientific (Life Technologies) SelectScreen
Assay: SelectScreen LanthaScreen
Type: binding
Conditions: 1 µM
Procedure, shortened: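 SelectScreen broad panel; activity (Z'LYTE, Adapta) plus binding formats. ATP: Km app for CSF1R Z'LYTE; 10 for CAMK1 Adapta. Readout = % per kinase.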

T1 sequence (P08581 25-1390 D1228H): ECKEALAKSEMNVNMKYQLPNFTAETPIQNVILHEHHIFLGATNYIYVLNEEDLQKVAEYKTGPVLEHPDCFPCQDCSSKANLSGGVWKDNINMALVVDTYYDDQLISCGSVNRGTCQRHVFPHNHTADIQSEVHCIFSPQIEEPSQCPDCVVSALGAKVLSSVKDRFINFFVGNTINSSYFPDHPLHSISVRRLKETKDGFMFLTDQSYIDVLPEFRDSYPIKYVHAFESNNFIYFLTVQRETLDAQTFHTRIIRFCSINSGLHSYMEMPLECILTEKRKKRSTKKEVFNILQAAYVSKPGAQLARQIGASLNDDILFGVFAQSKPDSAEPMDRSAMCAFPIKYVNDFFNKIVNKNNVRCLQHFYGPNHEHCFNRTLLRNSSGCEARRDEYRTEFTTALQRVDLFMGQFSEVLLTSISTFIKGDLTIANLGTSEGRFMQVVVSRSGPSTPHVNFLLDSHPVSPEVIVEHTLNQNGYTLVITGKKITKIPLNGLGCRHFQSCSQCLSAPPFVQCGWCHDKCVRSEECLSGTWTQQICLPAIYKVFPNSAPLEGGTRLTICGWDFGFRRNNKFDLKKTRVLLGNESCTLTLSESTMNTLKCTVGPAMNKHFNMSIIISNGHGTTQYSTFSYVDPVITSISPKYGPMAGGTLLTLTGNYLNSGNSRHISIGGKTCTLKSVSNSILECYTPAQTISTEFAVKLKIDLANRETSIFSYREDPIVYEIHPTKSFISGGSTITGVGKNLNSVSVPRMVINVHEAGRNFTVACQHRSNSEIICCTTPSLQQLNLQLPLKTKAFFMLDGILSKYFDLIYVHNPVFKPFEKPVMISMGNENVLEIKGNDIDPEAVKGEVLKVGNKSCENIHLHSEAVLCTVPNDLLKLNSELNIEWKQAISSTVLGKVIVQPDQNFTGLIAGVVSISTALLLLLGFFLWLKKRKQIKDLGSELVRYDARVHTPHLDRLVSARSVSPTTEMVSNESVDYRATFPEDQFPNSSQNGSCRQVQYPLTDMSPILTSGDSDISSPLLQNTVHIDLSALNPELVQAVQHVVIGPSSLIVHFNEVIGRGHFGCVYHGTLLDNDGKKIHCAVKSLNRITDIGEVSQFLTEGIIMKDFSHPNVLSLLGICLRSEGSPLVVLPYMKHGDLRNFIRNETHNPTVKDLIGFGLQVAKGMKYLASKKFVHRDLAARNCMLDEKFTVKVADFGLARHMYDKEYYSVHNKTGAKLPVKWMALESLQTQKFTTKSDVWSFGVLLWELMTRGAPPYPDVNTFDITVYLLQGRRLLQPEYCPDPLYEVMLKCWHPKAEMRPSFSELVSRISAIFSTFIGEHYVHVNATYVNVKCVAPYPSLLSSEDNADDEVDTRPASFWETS

CN(C(=O)CN1CCOCC1)c1ccc2sc3c(-c4cccc5c(=O)cc(N6CC7CCC(C6)O7)oc45)cccc3c2c1 [NU5455]
% displacement: -1.5%

— publication PMC6934184, “Selective DNA-PKcs inhibition extends the therapeutic index of localized radiotherapy and chemotherapy” (The Journal of Clinical Investigation, 2019)
